# Data reported in the Kinase Knowledgebase extract (Sharma et al. 2016).
# Biological target: PIK3CG (human) (UniProt P48736)
# Test: Assessment of PIK3CG Kinase Activity
# Sequence of PIK3CG (human) (P48736 whole entry, looked up): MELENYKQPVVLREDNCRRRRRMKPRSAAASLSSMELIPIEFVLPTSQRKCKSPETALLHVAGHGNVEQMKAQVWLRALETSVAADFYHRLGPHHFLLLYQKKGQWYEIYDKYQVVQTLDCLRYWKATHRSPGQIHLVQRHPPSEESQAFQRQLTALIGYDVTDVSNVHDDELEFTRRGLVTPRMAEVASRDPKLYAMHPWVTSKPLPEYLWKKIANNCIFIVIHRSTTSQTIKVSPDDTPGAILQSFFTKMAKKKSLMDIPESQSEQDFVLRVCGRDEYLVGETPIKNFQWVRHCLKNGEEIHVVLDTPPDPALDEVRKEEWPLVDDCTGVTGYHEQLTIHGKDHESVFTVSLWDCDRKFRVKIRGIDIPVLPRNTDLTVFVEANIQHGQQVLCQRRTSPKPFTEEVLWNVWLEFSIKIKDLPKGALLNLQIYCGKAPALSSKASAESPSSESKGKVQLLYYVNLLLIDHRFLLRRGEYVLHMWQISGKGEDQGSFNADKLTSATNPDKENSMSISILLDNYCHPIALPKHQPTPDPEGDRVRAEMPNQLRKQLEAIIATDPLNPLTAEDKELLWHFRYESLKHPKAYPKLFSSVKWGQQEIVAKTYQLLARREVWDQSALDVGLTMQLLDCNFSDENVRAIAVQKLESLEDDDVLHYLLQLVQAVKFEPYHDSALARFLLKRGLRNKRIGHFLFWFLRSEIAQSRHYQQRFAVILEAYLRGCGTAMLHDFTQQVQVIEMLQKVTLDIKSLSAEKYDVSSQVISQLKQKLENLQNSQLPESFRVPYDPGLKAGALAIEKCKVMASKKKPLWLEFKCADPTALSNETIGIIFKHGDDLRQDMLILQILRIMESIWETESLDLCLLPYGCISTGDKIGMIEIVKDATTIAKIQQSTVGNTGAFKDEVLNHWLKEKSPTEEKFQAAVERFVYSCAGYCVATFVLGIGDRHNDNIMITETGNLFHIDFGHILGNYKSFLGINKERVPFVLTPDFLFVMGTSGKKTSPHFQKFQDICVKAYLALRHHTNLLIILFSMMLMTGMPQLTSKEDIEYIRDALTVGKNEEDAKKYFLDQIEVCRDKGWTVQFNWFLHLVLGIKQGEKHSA
row,Compound,IC50
1,COC1(C#Cc2ccc(F)c(-c3ncc4c(n3)-c3sc(NC(C)=O)nc3CC4)c2)CCCCC1,< 0.6 µM
2,CC(=O)Nc1nc2c(s1)-c1nc(-c3cc(Cl)cc(C#CCNS(C)(=O)=O)c3)ncc1CC2,< 0.6 µM
3,CC(=O)Nc1nc2c(s1)-c1nc(-c3cc(C#CCCCN4CCC(N(C)C)CC4)ccc3Cl)ncc1CC2,< 0.6 µM
4,CC(=O)Nc1nc2c(s1)-c1nc(-c3cc(Cl)cc(C#CCNC(=O)CC(C)(C)C)c3)ncc1CC2,< 0.6 µM
5,CC(=O)Nc1nc2c(s1)-c1nc(-c3cc(C#CCNC(=O)CCC(C)C)ccc3Cl)ncc1CC2,< 0.6 µM
6,CC(=O)Nc1nc2c(s1)-c1nc(-c3cc(C#CC4CCN(C(=O)NC5CCCC5)CC4)ccc3Cl)ncc1CC2,< 0.6 µM
7,CC(=O)Nc1nc2c(s1)-c1nc(-c3cc(C#CC4(N)CCCCC4)ccc3Cl)ncc1CC2,< 0.6 µM
8,CCS(=O)(=O)N(C)CC#Cc1ccc(Cl)c(-c2ncc3c(n2)-c2sc(NC(C)=O)nc2CC3)c1,< 0.6 µM
9,CC(=O)Nc1nc2c(s1)-c1nc(-c3cc(C#CC4(O)CCN(C)CC4)ccc3Cl)ncc1CC2,< 0.6 µM
10,CC(=O)Nc1nc2c(s1)-c1nc(-c3cccc(C#CCNS(=O)(=O)N(C)C)c3)ncc1CC2,< 0.6 µM
11,CC(=O)Nc1nc2c(s1)-c1nc(-c3cc(C#CCNCc4ncccc4C)ccc3Cl)ncc1CC2,< 0.6 µM
12,CC(=O)Nc1nc2c(s1)-c1nc(-c3cc(C#CCO[C@@H]4CN5CCC4CC5)ccc3Cl)ncc1CC2,< 0.6 µM
13,CC(=O)Nc1nc2c(s1)-c1nc(-c3cc(C#CCNS(=O)(=O)Cc4ccccc4)ccc3Cl)ncc1CC2,< 0.6 µM
14,CC(=O)Nc1nc2c(s1)-c1nc(-c3cc(C#CCN(C)C)ccc3Cl)ncc1CC2,< 0.6 µM
15,COC1(C#Cc2ccc(Cl)c(-c3ncc4c(n3)-c3sc(NC(C)=O)nc3CC4)c2)CCCCC1,< 0.6 µM
16,CC(=O)Nc1nc2c(s1)-c1nc(-c3cc(C#CCCCNC4CCN(C)CC4)ccc3Cl)ncc1CC2,< 0.6 µM
17,CC(=O)Nc1nc2c(s1)-c1nc(-c3cc(C#CCOC4CCN(C(C)=O)CC4)ccc3Cl)ncc1CC2,< 0.6 µM
18,CNC(=O)NCC#Cc1ccc(Cl)c(-c2ncc3c(n2)-c2sc(NC(C)=O)nc2CC3)c1,< 0.6 µM
19,CC(=O)Nc1nc2c(s1)-c1nc(-c3cccc(C#CC4CCN(C5CCCC5)CC4)c3)ncc1CC2,< 0.6 µM
20,CC(=O)Nc1nc2c(s1)-c1nc(-c3cc(C#Cc4cncn4C)ccc3Cl)ncc1CC2,< 0.6 µM
21,CC(=O)Nc1nc2c(s1)-c1nc(-c3cc(C#CCNS(=O)(=O)N4CCOCC4)ccc3Cl)ncc1CC2,< 0.6 µM
22,CNCC#Cc1cccc(-c2ncc3c(n2)-c2sc(NC(C)=O)nc2CC3)c1,< 0.6 µM
23,CC(=O)Nc1nc2c(s1)-c1nc(-c3cc(C#CC4CCN(C(=O)NCC5CCCCC5)CC4)ccc3Cl)ncc1CC2,< 0.6 µM
24,CC(=O)Nc1nc2c(s1)-c1nc(-c3cc(C#CC4CCN(C(=O)C5CCCC5)CC4)ccc3Cl)ncc1CC2,< 0.6 µM
25,CC(=O)Nc1nc2c(s1)-c1nc(-c3cc(C#CCNC(=O)Cn4ccnc4)ccc3Cl)ncc1CC2,< 0.6 µM
26,CC(=O)Nc1nc2c(s1)-c1nc(-c3cc(C#CCN(C)S(=O)(=O)N(C)C)ccc3Cl)ncc1CC2,< 0.6 µM
27,CC(=O)Nc1nc2c(s1)-c1nc(-c3cc(C#CCNS(=O)(=O)C4CCCCC4)ccc3Cl)ncc1CC2,< 0.6 µM
28,CC(=O)Nc1nc2c(s1)-c1nc(-c3cc(C#CC4CCN(S(=O)(=O)C5CC5)CC4)ccc3Cl)ncc1CC2,< 0.6 µM
29,CC(=O)Nc1nc2c(s1)-c1nc(-c3cccc(C#CCNC(=O)CC(C)(C)C)c3)ncc1CC2,< 0.6 µM

# Other lines, results leading:
row,IC50,Compound
1,< 0.6 µM,CC(=O)Nc1nc2c(s1)-c1nc(-c3cc(C#CCNC(=O)N4CCCC4)ccc3Cl)ncc1CC2
2,< 0.6 µM,CC(=O)Nc1nc2c(s1)-c1nc(-c3cc(C#CCN4CCN(C)CC4)ccc3Cl)ncc1CC2
3,< 0.6 µM,CC(=O)Nc1nc2c(s1)-c1nc(-c3cc(C#CCN4CCC(N(C)C)CC4)ccc3Cl)ncc1CC2
4,< 0.6 µM,CC(=O)Nc1nc2c(s1)-c1nc(-c3cc(C#CCN4CC[S+]([O-])CC4)ccc3Cl)ncc1CC2
5,< 0.6 µM,CC(=O)Nc1nc2c(s1)-c1nc(-c3cc(C#CCNC(=O)NC(C)C)ccc3Cl)ncc1CC2
6,< 0.6 µM,CC(=O)Nc1nc2c(s1)-c1nc(-c3cc(C#CCCNC(C)C)ccc3Cl)ncc1CC2
7,< 0.6 µM,CC(=O)Nc1nc2c(s1)-c1nc(-c3cc(C#CCN4CCNC(=O)C4)ccc3Cl)ncc1CC2
8,< 0.6 µM,CC(=O)Nc1nc2c(s1)-c1nc(-c3cc(C#CCN4CCC(C(N)=O)CC4)ccc3Cl)ncc1CC2
9,< 0.6 µM,CC(=O)Nc1nc2c(s1)-c1nc(-c3cc(C#CC4(O)CCN(C(C)C)CC4)ccc3F)ncc1CC2
10,< 0.6 µM,CC(=O)Nc1nc2c(s1)-c1nc(-c3cc(C#CC4(O)CCN(C(C)C)CC4)ccc3Cl)ncc1CC2
11,< 0.6 µM,CC(=O)Nc1nc2c(s1)-c1nc(-c3cc(C#Cc4ccccn4)ccc3Cl)ncc1CC2
12,< 0.6 µM,CCN(CC)S(=O)(=O)NCC#Cc1ccc(Cl)c(-c2ncc3c(n2)-c2sc(NC(C)=O)nc2CC3)c1
13,< 0.6 µM,COC1(C#Cc2ccc(Cl)c(-c3ncc4c(n3)-c3sc(NC(C)=O)nc3CC4)c2)CCN(C2CCCC2)CC1
14,< 0.6 µM,COC1(C#Cc2ccc(F)c(-c3ncc4c(n3)-c3sc(NC(C)=O)nc3CC4)c2)CCN(C)CC1
15,< 0.6 µM,CC(=O)Nc1nc2c(s1)-c1nc(-c3cc(C#CCN(C)C(C)C)ccc3Cl)ncc1CC2
16,< 0.6 µM,CC(=O)Nc1nc2c(s1)-c1nc(-c3cc(C#CCCO)ccc3Cl)ncc1CC2

row,IC50,Compound
1,< 0.6 µM,CC(=O)Nc1nc2c(s1)-c1nc(-c3cc(C#CCNC(=O)CC(C)C)ccc3Cl)ncc1CC2
2,< 0.6 µM,CC(=O)Nc1nc2c(s1)-c1nc(-c3cc(Cl)cc(C#CC4CCN(C5CCCC5)CC4)c3)ncc1CC2
3,< 0.6 µM,CC(=O)Nc1nc2c(s1)-c1nc(-c3cc(C#CCNC(C)C)ccc3Cl)ncc1CC2
4,< 0.6 µM,CNC(=O)Nc1nc2c(s1)-c1nc(-c3cc(C#CC4(OC)CCN(C)CC4)ccc3Cl)ncc1CC2
5,< 0.6 µM,CC(=O)Nc1nc2c(s1)-c1nc(-c3cc(C#CCCCN4CCCC4)ccc3Cl)ncc1CC2
6,< 0.6 µM,CC(=O)Nc1nc2c(s1)-c1nc(-c3cc(C#CCCCN4CCOCC4)ccc3Cl)ncc1CC2
7,< 0.6 µM,COC1(C#Cc2ccc(F)c(-c3ncc4c(n3)-c3sc(NC(C)=O)nc3CC4)c2)CCN(C2CCCC2)CC1
8,< 0.6 µM,CC(=O)Nc1nc2c(s1)-c1nc(-c3cccc(C#CC4CCN(C)CC4)c3)ncc1CC2
9,< 0.6 µM,CC(=O)Nc1nc2c(s1)-c1nc(-c3cc(C#CCNS(=O)(=O)C4CC4)ccc3Cl)ncc1CC2
10,< 0.6 µM,CC(=O)Nc1nc2c(s1)-c1nc(-c3cc(C#CC4CCCCC4)ccc3Cl)ncc1CC2
11,< 0.6 µM,CC(=O)Nc1nc2c(s1)-c1nc(-c3cc(C#CCNC(=O)C4CCCCC4)ccc3Cl)ncc1CC2
12,< 0.6 µM,CC(=O)Nc1nc2c(s1)-c1nc(-c3cc(C#CC4CCN(C(C)=O)CC4)ccc3Cl)ncc1CC2
13,< 0.6 µM,CC(=O)Nc1nc2c(s1)-c1nc(-c3cc(C#CCCCNC4CCCC4)ccc3Cl)ncc1CC2
14,< 0.6 µM,CNCC#Cc1ccc(Cl)c(-c2ncc3c(n2)-c2sc(NC(C)=O)nc2CC3)c1
15,< 0.6 µM,CC(=O)Nc1nc2c(s1)-c1nc(-c3cc(C#CCNC(=O)C(C)C)ccc3Cl)ncc1CC2
16,< 0.6 µM,CC(=O)Nc1nc2c(s1)-c1nc(-c3cc(C#CC4CCN(S(C)(=O)=O)CC4)ccc3Cl)ncc1CC2
